Measured values published in patent publication US10285382B2 (priority 2017, dated 2019).
Values joined by “and” are separate entries in the source; they are usually repeats but may differ in a detail not shown here. Equal values may be shown once. Read-outs that look alike come from different tables or passages of the source.

Experiments:
[1] = test system: chicks
Text: The chicks hatched according to the methods of Examples 2 and 3 are shipped to a broiler facility and raised to maturity. No additional changes to grow-out methods are made. A total of about 4 million eggs are set per month and the saleable chicks are sent to the grow-out facility. […] The wholesale price of a broiler is currently estimated at $0.85 per pound. […] See the http:///.nationalchickencouncil.org available on the web.

[2] = test system: Total bacteria
Text: (§1) Hatcheries and chick production facilities are subject to heavy bacterial loads that are difficult to control. In addition to the animals themselves, there is a significant contamination of the facilities from the outside.

[3] = test system: Other blue green
Text: as §1

[4] = test system: Aspergillus fumigatus
Text: as §1

[5] = test system: Salmonella; details: hatchery environment (egg room and incubators); after 28 days
[6] = test system: bacteria; details: end of test period (0, 7, and 30 days), three locations; from about 70 total; FIGS. 9A-C
Method: In addition, bacterial contamination in the egg room is assessed by placing blood agar plates at three locations in the room (East, North, and West) at 0, 7, and 30 days, and bacterial growth is assessed after 24 hours.

[7] = test system: S. aureus ATCC 33592 (MRSA)
[8] = test system: MS2 Bacteriophage ATCC 15597-B1; details: DHP (+); 1 hour
[9] = test system: E. coli K12; details: for % Reduction vs. Control / Log10 reduction / Log10 reduction vs. Control / Percent reduction: DHP (+)
[10] = test system: hatching eggs
[11] = test system: flies and other unwanted insects
Text: In addition to the incoming eggs, the egg room includes excess shipping boxes and pallets.

[12] = test system: Gram-negative enteric bacilli; details: egg cooler conditions
[13] = test system: bacteria growing on TSA; details: for number of bacteria growing on TSA: test room, DHP about 0.1 ppm, FIGS. 13A-B
[14] = test system: salmonellae; details: egg cooler conditions; during the trial
[15] = 6 Hours contact, Hood (Treated)
[16] = 6 Hours contact, Room (Treated)
[17] = 24 Hours contact, Hood (Treated)
[18] = 24 Hours contact, Room (Treated)
[19] = 48 Hours contact, Hood (Treated)
[20] = 48 Hours contact, Room (Treated)

SMILES: OO [DHP, dry hydrogen peroxide]
- Mortality Rate ([1]; After DHP treatment, grow-out facility): 2.2%
- Net increase (# Broilers) ([1]; After DHP treatment, per month): 308,678
- reduction of mortality ([1]; at the grow-out facility): about 7.8%
- increase in overall production ([1]; per month): over 300,000 broilers
- reduction of bacterial loads in hatcheries ([2]; DHP treatment): over 90%
- Kill ([2]; Total (sum of all categories)): 650019
- Post ([2]; Total (sum of all categories)): 50167
- Kill ([2]; Total bacteria): 550037
- Reduction ([2]; Total bacteria): 91.65%
- Post ([2]; Total bacteria, hatchery after DHP): 50110
- Kill [3]: 49983
- Reduction [3]: 99.89%
- Post ([3]; hatchery after DHP): 56
- Kill [4]: 49999
- Reduction [4]: 99.99%
- Post ([4]; hatchery after DHP): 1
- reduction of Salmonella on the egg surface [5]: 83.3%
- number of bacterial colonies on the blood agar plates, total [6]: about 30
- % Reduction compared to Control [7, 15]: 95.150%
- Average CFU/Carrier [7, 15]: 2.51E+05 CFU/Carrier
- Log Reduction compared to Control [7, 15]: 1.31
- Replicate CFU/Carrier [7, 15]: 1.62E+05 CFU/Carrier and 3.40E+05 CFU/Carrier
- % Reduction compared to Control [7, 16]: 83.053%
- Average CFU/Carrier [7, 16]: 8.77E+05 CFU/Carrier
- Log Reduction compared to Control [7, 16]: 0.77
- Replicate CFU/Carrier [7, 16]: 2.54E+05 CFU/Carrier and 1.50E+06 CFU/Carrier
- % Reduction compared to Control [7, 17]: >66.667%
- Average CFU/Carrier [7, 17]: <1.50E+01 CFU/Carrier
- Log Reduction compared to Control [7, 17]: >0.48
- Replicate CFU/Carrier [7, 17]: 2.50E+01 CFU/Carrier and <5.00E+00 CFU/Carrier
- % Reduction compared to Control [7, 18]: >88.889%
- Average CFU/Carrier [7, 18]: <5.00E+00 CFU/Carrier
- Log Reduction compared to Control [7, 18]: >0.95
- Replicate CFU/Carrier [7, 18]: 5.00E+00 CFU/Carrier and <5.00E+00 CFU/Carrier
- % Reduction compared to Control [7, 19]: >78.947%
- Average CFU/Carrier [7, 19]: <1.00E+01 CFU/Carrier
- Log Reduction compared to Control [7, 19]: >0.68
- % Reduction compared to Control [7, 20]: >89.474%
- Average CFU/Carrier [7, 20]: <5.00E+00 CFU/Carrier
- Log Reduction compared to Control [7, 20]: >0.98
- Replicate CFU/Carrier [7, 20]: <5.00E+00 CFU/Carrier
- % Reduction vs. Control [8]: 99.8%
- Log10 reduction [8]: 3.54
- Log10 reduction vs. Control [8]: 2.70
- Percent reduction [8]: 99.97%
- % Reduction vs. Control ([9]; 1 hour): 99.8%
- Log10 reduction ([9]; 1 hour): >4.78
- Log10 reduction vs. Control ([9]; 1 hour): 2.82
- Percent reduction ([9]; 1 hour): >99.9984%
- % Reduction vs. Control ([9]; 2 hours): 98.1%
- Log10 reduction ([9]; 2 hours): >4.79
- Log10 reduction vs. Control ([9]; 2 hours): 1.71
- Percent reduction ([9]; 2 hours): >99.9984%
- aerosolized bacteria in the DHP treated space ([9]; within one hour): essentially eliminated
- Percent Saleable Chicks ([10]; After DHP treatment): 80.82%
- Saleable Chick (average) ([10]; After DHP treatment, 4,000,000 eggs set per month): 3,318,400
- Net increase (# Chicks) ([10]; After DHP treatment, from each 4,000,000 eggs set): 62,000
- After Modification Cull Rate (%) ([10]; August 2016): 1.58%
- After Modification First Quality Chick (% Hatched) ([10]; August 2016): 79.90%
- After Modification Cull Rate (%) ([10]; Average June-November 2016): 1.65%
- After Modification First Quality Chick (% Hatched) ([10]; Average June-November 2016): 80.82%
- cull rate lower than the cull rate before DHP modification ([10]; DHP modified egg room): at least 1%
- After Modification Cull Rate (%) ([10]; July 2016): 1.88%
- After Modification First Quality Chick (% Hatched) ([10]; July 2016): 79.78%
- After Modification Cull Rate (%) ([10]; June 2016): 2.09%
- After Modification First Quality Chick (% Hatched) ([10]; June 2016): 78.62%
- After Modification Cull Rate (%) ([10]; November 2016): 1.41%
- After Modification First Quality Chick (% Hatched) ([10]; November 2016): 82.96%
- After Modification Cull Rate (%) ([10]; October 2016): 1.32%
- After Modification First Quality Chick (% Hatched) ([10]; October 2016): 82.55%
- After Modification Cull Rate (%) ([10]; September 2016): 1.63%
- After Modification First Quality Chick (% Hatched) ([10]; September 2016): 81.09%
- percent hatching of first quality chicks ([10]; after installation of DHP to the setter incubator environment (room about 0.5 ppm), FIG. 6): 83%
- cull rate ([10]; eggs incubated under DHP conditions, FIG. 7): continues to drop
- additional birds available for shipping to the grow-out facility ([10]; installation of DHP in the egg room): about 4,000 birds
- elimination of flies and other unwanted insects ([11]; egg room, DHP between 0.1 ppm and 0.2 ppm): sufficient to eliminate
- elimination of flies and other unwanted insects, both flying and non-flying ([11]; incorporation of DHP into the egg room): eliminates
- flying insects in the facility ([11]; within the first couple days of applying DHP to the poultry space): virtually eliminated
- growth on Mac at 72 hours compared to 0 hours ([12]; treated group, FIG. 14): significantly less growth
- Mac growth ([12]; treatment, 0 to 120 hours): low throughout
- TSA growth ([13]; egg cooler conditions, treatment, 0 to 120 hours): static until 120 hours
- number of bacteria growing on TSA ([13]; after 72 hours (P=0.05)): significantly reduced
- number of bacteria growing on TSA ([13]; after 120 hours (P=0.05)): significantly reduced
- growth of Salmonella on the XLT-4 [14]: No growth
